Read-outs that look alike come from different tables or passages of the source.
Columns and labels:
Format in all cases: in vivo
[1] = system: Tetranychus urticae; assay: Tetranychus urticae (two-spotted spider mite): feeding/contact activity; details: 192 h
Experimental: Bean leaf discs on agar in 24-well microtiter plates were sprayed with aqueous test solutions prepared from 10'000 ppm DMSO stock solutions. After drying the leaf discs were infested with a mite population of mixed ages. The samples were assessed for mortality on mixed population (mobile stages) 8 days after infestation.

[2] = system: Thrips tabaci; assay: Thrips tabaci (onion thrips): feeding/contact activity; details: 144 h
Experimental: Sunflower leaf discs were placed on agar in 24-well microtiter plates and sprayed with aqueous test solutions prepared from 10'000 ppm DMSO stock solutions. After drying the leaf discs were infested with a Thrips population of mixed ages. The samples were assessed for mortality 6 days after infestation.

[3] = system: Diabrotica balteata; assay: Diabrotica balteata (corn root worm), sprayed maize sprouts; details: 96 h, read-out: effect in at least one of the two categories (mortality or growth inhibition); for percent effect (mortality or growth inhibition) at 200 ppm: application rate 200 ppm, L2 larvae, 4 days after infestation
Summary of the method: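 Read-out at 4 days post-infestation: mortality and growth inhibition relative to untreated samples. Test solutions (200 ppm, from DMSO stocks) were sprayed onto agar-held maize sprouts, which after drying received 6–10 L2 larvae per well.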

[4] = system: Spodoptera littoralis; assay: Spodoptera littoralis (Egyptian cotton leaf worm), sprayed cotton leaf discs; details: foliar, 72 h, read-out: control (mortality, anti-feeding effect, growth inhibition)
Summary of the method: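 Five first-instar larvae placed on dried cotton leaf discs (on agar) previously sprayed with aqueous dilutions of 10'000 ppm DMSO stocks. Scored at 3 days against untreated discs for mortality, feeding inhibition and growth inhibition; any category above untreated counts as control.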

[5] = system: Plutella xylostella; assay: Plutella xylostella (diamond back moth), artificial diet; details: 120 h, read-out: effect in at least one of the two categories (mortality or growth inhibition); for percent effect (mortality or growth inhibition) at 200 ppm: application rate 200 ppm, L2 larvae, 5 days after infestation
Summary of the method: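 L2 larvae (10-15 per well) fed on compound-treated, dried artificial diet; test solutions diluted in water from 10'000 ppm DMSO stocks. Readout 5 days post-infestation as mortality or growth inhibition versus untreated diet, with at least 80% effect at 200 ppm as threshold.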

[6] = system: Euschistus heros; assay: Euschistus heros (neotropical brown stink bug), sprayed soybean leaves; details: 120 h, read-out: effect in at least one of the two categories (mortality or growth inhibition); for percent effect (mortality or growth inhibition) at 200 ppm: application rate 200 ppm, N2 nymphs, 5 days after infestation
Summary of the method: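 Scored 5 days post-infestation versus untreated controls, for both mortality and growth inhibition: N2 nymphs placed on agar-mounted soybean leaves previously sprayed at 200 ppm with aqueous test solutions from DMSO stocks and left to dry.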

[7] = system: Myzus persicae; assay: Myzus persicae (green peach aphid): feeding/contact activity; details: 144 h
Experimental: Sunflower leaf discs were placed onto agar in a 24-well microtiter plate and sprayed with aqueous test solutions prepared from 10'000 ppm DMSO stock solutions. After drying, the leaf discs were infested with an aphid population of mixed ages. The samples were assessed for mortality 6 days after infestation.

[8] = application rate 200 ppm, mixed population (mobile stages), 8 days after infestation, read-out: mortality
[9] = application rate 200 ppm, Thrips population of mixed ages, 6 days after infestation, read-out: mortality
[10] = application rate 200 ppm, L1 larvae, 3 days after infestation
[11] = application rate 200 ppm, aphid population of mixed ages, 6 days after infestation, read-out: mortality

Cc1cc(C2=NO[C@@](c3cc(Cl)c(F)c(Cl)c3)(C(F)(F)F)C2)ccc1C(=O)NC1CON(S(=O)(=O)CCCl)C1 (stereo partly drawn) [Compound A7, N-[2-(2-chloroethylsulfonyl)isoxazolidin-4-yl]-4-[(5S)-5-(3,5-dichloro-4-fluoro-phenyl)-5-(trifluoromethyl)-4H-isoxazol-3-yl]-2-methyl-benzamide]
≥ 80%: mortality at 200 ppm [1] | mortality at 200 ppm [2] | percent control (mortality or growth inhibition) at 200 ppm [3] | mortality at 200 ppm [4] | percent control (mortality or growth inhibition) at 200 ppm [5] | percent control (mortality or growth inhibition) at 200 ppm [6] | mortality at 200 ppm [7]

CNS(=O)(=O)N1C[C@@H](NC(=O)c2ccc(C3=NO[C@](c4cc(F)cc(C(F)(F)F)c4)(C(F)(F)F)C3)cc2C)CO1 [Compound A180]
≥ 80%: mortality at 200 ppm [1, 8] | mortality at 200 ppm [2, 9] | percent effect (mortality or growth inhibition) at 200 ppm [3] | mortality at 200 ppm [4, 10] | percent effect (mortality or growth inhibition) at 200 ppm [5] | percent effect (mortality or growth inhibition) at 200 ppm [6] | mortality at 200 ppm [7, 11]

Cc1cc(C2=NO[C@@](c3cc(Cl)c(F)c(Cl)c3)(C(F)(F)F)C2)ccc1C(=O)NC1CON(S(=O)(=O)N(C)C(=O)N(C)C)C1 (some centres unmarked) [Compound A74]
≥ 80%: mortality at 200 ppm [1, 8] | mortality at 200 ppm [2, 9] | percent effect (mortality or growth inhibition) at 200 ppm [3] | mortality at 200 ppm [4, 10] | percent effect (mortality or growth inhibition) at 200 ppm [5] | percent effect (mortality or growth inhibition) at 200 ppm [6] | mortality at 200 ppm [7, 11]

Cc1cc(C2=NO[C@@](c3cc(F)cc(C(F)(F)F)c3)(C(F)(F)F)C2)ccc1C(=O)N[C@@H]1CON(S(C)(=O)=O)C1 [Compound A172]
≥ 80%: mortality at 200 ppm [1, 8] | mortality at 200 ppm [2, 9] | percent effect (mortality or growth inhibition) at 200 ppm [3] | mortality at 200 ppm [4, 10] | percent effect (mortality or growth inhibition) at 200 ppm [5] | percent effect (mortality or growth inhibition) at 200 ppm [6] | mortality at 200 ppm [7, 11]

CCN(C)S(=O)(=O)N1C[C@@H](NC(=O)c2ccc(C3=NO[C@@](c4cc(Cl)cc(Cl)c4)(C(F)(F)F)C3)cc2Cl)CO1 [Compound A129, 2-chloro-4-[(5S)-5-(3,5-dichlorophenyl)-5-(trifluoromethyl)-4H-isoxazol-3-yl]-N-[(4R)-2-[ethyl(methyl)sulfamoyl]isoxazolidin-4-yl]benzamide]
≥ 80%: mortality at 200 ppm [1, 8] | mortality at 200 ppm [2, 9] | percent effect (mortality or growth inhibition) at 200 ppm [3] | mortality at 200 ppm [4, 10] | percent effect (mortality or growth inhibition) at 200 ppm [5] | percent effect (mortality or growth inhibition) at 200 ppm [6] | mortality at 200 ppm [7, 11]

Cc1cc(C2=NO[C@@](c3cc(Cl)c(F)c(Cl)c3)(C(F)(F)F)C2)ccc1C(=O)N[C@H]1CON(S(=O)(=O)C(F)F)C1 [Compound A226, 4-[(5S)-5-(3,5-dichloro-4-fluorophenyl)-5-(trifluoromethyl)-4H-1,2-oxazol-3-yl]-N-[(4R)-2-(difluoromethylsulfonyl)-1,2-oxazolidin-4-yl]-2-methylbenzamide]
≥ 80%: mortality at 200 ppm [1, 8] | mortality at 200 ppm [2, 9] | percent effect (mortality or growth inhibition) at 200 ppm [3] | mortality at 200 ppm [4, 10] | percent effect (mortality or growth inhibition) at 200 ppm [5] | percent effect (mortality or growth inhibition) at 200 ppm [6] | mortality at 200 ppm [7, 11]

CCN(C(C)C)S(=O)(=O)N1CC(NC(=O)c2ccc(C3=NO[C@@](c4cc(Cl)c(Cl)c(Cl)c4)(C(F)(F)F)C3)cc2C)CO1 (some centres unmarked) [Compound A104]
≥ 80%: mortality at 200 ppm [1, 8] | mortality at 200 ppm [2, 9] | percent effect (mortality or growth inhibition) at 200 ppm [3] | mortality at 200 ppm [4, 10] | percent effect (mortality or growth inhibition) at 200 ppm [5] | percent effect (mortality or growth inhibition) at 200 ppm [6] | mortality at 200 ppm [7, 11]

Cc1cc(C2=NO[C@](c3cc(Cl)c(F)c(Cl)c3)(C(F)(F)F)C2)ccc1C(=O)N[C@H]1CON(S(=O)(=O)CC(F)(F)F)C1 [Compound A192, 4-[(5R)-5-(3,5-dichloro-4-fluorophenyl)-5-(trifluoromethyl)-4H-1,2-oxazol-3-yl]-2-methyl-N-[(4R)-2-(2,2,2-trifluoroethylsulfonyl)-1,2-oxazolidin-4-yl]benzamide]
≥ 80%: mortality at 200 ppm [1, 8] | mortality at 200 ppm [2, 9] | percent effect (mortality or growth inhibition) at 200 ppm [3] | mortality at 200 ppm [4, 10] | percent effect (mortality or growth inhibition) at 200 ppm [5] | percent effect (mortality or growth inhibition) at 200 ppm [6] | mortality at 200 ppm [7, 11]

Cc1cc(C2=NO[C@@](c3cc(Cl)c(F)c(Cl)c3)(C(F)(F)F)C2)ccc1C(=O)N[C@H]1CON(S(=O)(=O)NCC(F)(F)F)C1 [Compound A149, 4-[(5S)-5-(3,5-dichloro-4-fluoro-phenyl)-5-(trifluoromethyl)-4H-isoxazol-3-yl]-2-methyl-N-[(4R)-2-(2,2,2-trifluoroethylsulfamoyl)isoxazolidin-4-yl]benzamide]
≥ 80%: mortality at 200 ppm [1, 8] | mortality at 200 ppm [2, 9] | percent effect (mortality or growth inhibition) at 200 ppm [3] | mortality at 200 ppm [4, 10] | percent effect (mortality or growth inhibition) at 200 ppm [5] | percent effect (mortality or growth inhibition) at 200 ppm [6] | mortality at 200 ppm [7, 11]

Cc1cc(C2=NO[C@@](c3cc(Cl)c(F)c(Cl)c3)(C(F)(F)F)C2)ccc1C(=O)NC1CON(S(N)(=O)=O)C1 (some centres unmarked) [Compound A71]
≥ 80%: mortality at 200 ppm [1, 8] | mortality at 200 ppm [2, 9] | percent effect (mortality or growth inhibition) at 200 ppm [3] | mortality at 200 ppm [4, 10] | percent effect (mortality or growth inhibition) at 200 ppm [5] | percent effect (mortality or growth inhibition) at 200 ppm [6] | mortality at 200 ppm [7, 11]

Cc1cc(C2=NO[C@](c3cc(Cl)c(Cl)c(Cl)c3)(C(F)(F)F)C2)ccc1C(=O)N[C@H]1CON(S(=O)(=O)CCl)C1 [Compound A220, N-[(4R)-2-(chloromethylsulfonyl)-1,2-oxazolidin-4-yl]-2-methyl-4-[(5R)-5-(3,4,5-trichlorophenyl)-5-(trifluoromethyl)-4H-1,2-oxazol-3-yl]benzamide]
≥ 80%: mortality at 200 ppm [1, 8] | mortality at 200 ppm [2, 9] | percent effect (mortality or growth inhibition) at 200 ppm [3] | mortality at 200 ppm [4, 10] | percent effect (mortality or growth inhibition) at 200 ppm [5] | percent effect (mortality or growth inhibition) at 200 ppm [6] | mortality at 200 ppm [7, 11]

— patent publication US10588317B2, “Isoxazoline-substituted benzamides and analogues as insecticides” (priority 2015, dated 2020)
